Source: publication PMC9696085, “Fully Symmetric Cyclodextrin Polycarboxylates: How to Determine Reliable Protonation Constants from NMR Titration Data” (International Journal of Molecular Sciences, 2022)
Read-outs that look alike come from different tables or passages of the source.

Assays:
[1] = cited from earlier work
[2] = 1H NMR-pH titration, protonation constants; format: physicochemical
Procedure: The pH meter readings were recorded using a Metrohm pH meter, equipped with a Metrohm 6.0234.110 combined glass electrode. A four-point calibration using pH 2.00, pH 4.00, pH 7.00 and pH 11.00 standard buffer solutions were performed directly before pH adjustments. The pH measurements were performed in 25 mL vessels with proper stirring before transferring 600 μL sample solutions into the NMR tubes. Solutions were prepared in the pH range of 1.50–8.70 with 0.30 increments using 0.9 M, 0.5 M and 0.1 M sodium hydroxide and hydrochloric acid solutions in H2O:D2O = 9:1.
For structural characterizations of CD derivatives in D2O, a 600 MHz Varian DDR NMR spectrometer equipped with a 5 mm inverse-detection gradient probe or a 400 MHz Varian Mercury Plus spectrometer equipped with a 5mm Varian 400 Automation Triple Resonance Broadband Pulsed Field Gradient probe was used. For NMR-pH titrations, the same instruments were used. The pH-dependent series of ^1H NMR spectra were recorded in a solvent mixture of H2O:D2O = 9:1 by volume, where the constant ionic strength and the buffer capacity were adjusted using 0.05 M sodium chloride and 0.05 M acetic acid-d4. An appropriate amount of CD was weighed to obtain a 1 mM solution and finally one drop of methanol was added as a chemical shift reference (3.310 ppm). The water resonance was diminished by the dpfgse pulse sequence or presaturation. All the spectra were processed using the MestReNova v9.0.1-13254 (Mestralab Research, S.L., Santiago de Compostela, Spain) software.
The standard macroscopic evaluation of NMR-pH titration curves (Equation (3) in Section 2.2) was performed with the following software tools: Microcal Origin Pro 8 (OriginLab Corp., Northampton, MA, USA), HypNMR2018 [38], OPIUM [39] and home-written R scripts (R version 4.1.2, The R Foundation, Vienna, Austria) using the nls module. The equidistant macroscopic (Equation (8)) and Q-fitting (Equations (4) and (11)) models were fitted both by Origin and our R-scripts to verify their equivalent performance regarding statistical description of the parameter estimates. The microscopic cluster expansion model in Section 2.5 requires summation of >100 variables which is unfeasible in the form of an explicit model function required by commercial data-fitting software like Origin. The enumeration of microspecies was therefore accomplished in a custom-written R script. To assess the robustness of our data-fitting model as well as the error propagation of the optimized log k and pε parameters to the derived log K macroconstants, Monte Carlo simulations on >1000 replicates were performed in R.

[3] = parameters: method as in doi:10.1021/jp0340820; conditions: cited from earlier work
[4] = Literature, ref Hawkins, Perrin, Inorg. Chem. 2 (1963) 843
[5] = ED macro, Eq. (7) evaluation, calculated (*)
[6] = Macroscopic, Eq. (2) evaluation
[7] = Macroscopic, Eq. (2) evaluation, calculated (*)
[8] = Microscopic, Eq. (3) evaluation, calculated (*)

Compound | log K1 [1, 4] | log K2 [1, 4] | log kA [1, 4] | pεAB [1, 4] | pε ([1]; earlier literature, almost independent carboxylate protonations) | log kA ([1]; literature value) | log K1 ([2]; ED macro, Eq. (7) evaluation) | log K2 ([2]; ED macro, Eq. (7) evaluation) | log kA [2, 5] | pεAB [2, 5] | log K1 [2, 6] | log K2 [2, 6] | log kA [2, 7] | pεAB [2, 7] | log K1 [2, 8] | log K2 [2, 8] | pε (carboxylate interactions) [3]
O=C(O)CCSSCCC(=O)O [DTDPA, 3,3′-dithiodipropionic acid, reference compound] | 4.47 | 3.88 | 4.16 | -0.01 | ≈ 0 | 4.16 | 4.631 (0.005) | 3.883 (0.005) | 4.330 (0.005) | 0.15 (0.01) | 4.62 (0.06) | 3.87 (0.07) | 4.32 (0.06) | 0.15 (0.01) | 4.630 (0.005) | 3.88 (0.01) | –
oxidized glutathione | – | – | – | – | – | – | – | – | – | – | – | – | – | – | – | – | ≈ 0.1
